# US12605386B2, “Sapropterin formulation” (APR Applied Pharma Research SA, priority 2022, dated 2026)
# Read-outs that look alike come from different tables or passages of the source.
# Tests used:
# [1] = cited from earlier work
# [2] = cited from earlier work; remark: listed apart in the source
# [3] = Visual observation of unformulated SPT solutions; type: physicochemical; conditions: 100 mM solutions; yellow/orange colour developed overtime
# Experimental: Stability over time of unformulated SPT solutions was initially investigated through visual observation of 100 mM solutions. The solutions were seen to be very unstable and a yellow/orange colour developed overtime, presumably due to the formation of oxidation sub-products.
# [4] = HPLC analysis of sapropterin solutions in water; type: physicochemical
# Experimental: Visual observations of degradation of sapropterin solutions were confirmed through HPLC analysis. The following methodology was used: Samples that were diluted to ca. 1 mM prior to analysis. HPLC Method • Column: Partisil […] SCX 250× (from […]) • Mode: isocratic • Mobile phase: KH2PO4 30 mM at pH 3.0 • Oven temperature: 30° C. • injection volume: 25 μL • flow: 1.5 mL/min (generated ca. 60 bar) • Detection: DAD 254-360 with acquisition at 254 HPLC System (VWR Hitachi) • VWR Hitachi L-2000 organizer • DAD: L2455 • Autosampler: L2200 • Pump: L2130 • Column oven: L2350 Preparation of Mobile Phase • 1) V (H2O)=500 mL • 2) m(KH2PO4)=2.04 g (MW=136.09 g/mol) • 3) To pH 3 with phosphoric acid diluted 50 fold with water (v/v) • Note: prior to dilution phosphoric acid stock was at 85% • Note2: 5-8 g of 1/50 diluted solution are required to drop pH to 3.0 Three solutions of sapropterin in water at 100 mM were submitted to HPLC analysis. Each solution was tested at a different time point one was tested when freshly prepared, one after one day and the other after 7 weeks old.
# [5] = Vegetable oil suspension stability study, water extraction and HPLC; type: physicochemical; conditions: oil free control; freshly prepared aqueous solutions
# Experimental: A simple stability study was carried out to establish the stability potential of the formulations tested. The stability study was carried out for a month at room temperature as this would reflect the conditions under which the material would be stored.
# The stability work was focused on vegetable oils. Food grade vegetable oils were tested and they were sourced from a supermarket and only opened before starting the stability work. Exploratory stability work was then carried out to establish the potential of liquid formulations for sunflower oil, olive oil, rapeseed oil and rice bran oil.
# Stability was informally assessed by preparing 10% w/w sapropterin suspensions and storing at room temperature on a shelf away from direct sunlight. Individual aliquots were prepared at each time point. At each sampling point sapropterin was extracted from oil with water as set out below and the sample analysed by HPLC. Absence of degradation products was used to establish lack of oxidation. The HPLC method set out above was not validated for quantitative analysis. Instead, SPT peak size was also semi-quantitatively used to further corroborate absence of oxidation but this was carried out by simply overlaying traces (e.g. SPT peak size at day 0 vs day 7) rather than performing calibrations curves of SPT. […]
# Samples were analysed at day 0, day 5, day 7, and/or day 31.
# [6] = powder and tablet formulations suspended in various foods and water at 20 mg/mL (62 mM); after one hour; cited from earlier work
# [7] = Peroxide degradation of sapropterin with HPLC analysis; type: physicochemical; conditions: peroxide degradation: 5 mL of 0.1% H2O2, 1.5 hours, room temperature
# Experimental: A sample of sapropterin was subjected to peroxide degradation with 5 mL of 0.1% H2O2 for 1.5 hours at room temperature.
# HPLC analysis of the resulting oxidative degradation of sapropterin was performed according to the procedure described below and the results are shown in Table 2.
# • Column: YMC Pack ODS AQ (250×4.6) mm, […] • Buffer: potassium dihydrogen phosphate pH3.0 with orthophosphoric acid • Mobile Phase A: 100% Buffer • Mobile Phase B: acetonitrile:methanol (1:9) • Wavelength: 220 nm for Impurity A, C, D, E, G • Wavelength: 275 nm for Impurity F • Flow: 0.6 ml/min • Injection Volume: 5 μl • Column Temperature: 30° C. • Sample Compartment: 5° C. • Run Time: 45 min Preparation of Mobile Phase: • Mobile Phase A: 2.72 g of potassium dihydrogen phosphate was added to 1000 ml of water and dissolved. pH was adjusted to 3.0 using orthophosphoric acid. The solution was mixed and filtered through 0.45 μm nylon membrane filter and degassed. • Mobile Phase B: 900 ml of methanol and 100 ml of acetonitrile was dissolved, mixed, and degassed.
# Preparation of 0.1N HCl: 8.5 ml of hydrochloric acid was added to 900 ml of water, diluted to 1000 ml with water, and then mixed.
# Diluent: 2.72 g of potassium dihydrogen phosphate was added to 1000 ml of water and dissolved. pH was adjusted to 3.0 using orthophosphoric acid. 10 mg of ascorib acid was added, mixed, and then filtered through 0.45 μm nylon membrane filter and degassed.
# [8] = 0.1 M phosphate buffer, pH 6.8, room temperature
structure (smiles),measurement,setting,value
"C[C@H](O)[C@H](O)[C@H]1CNc2nc(N)[nH]c(=O)c2N1 [Sapropterin, sapropterin]",pH of solution in water,[1]; 1 mM solution,3.0
same,pH of solution in water,[1]; 1 M solution,0.45
same,solubility in water,[1],freely soluble
same,degradation of solution in water,"[2]; 0.1 mM, after 1 hour open at room temperature",about 25%
same,degradation of solution in water,"[2]; 0.1 mM, after 3 hours",more than 60%
same,degradation of solution in water,"[2]; 1 mM, after 1 hour open at room temperature",2%
same,degradation of solution in water,"[2]; 1 mM, after 3 hours",10%
same,half-life,[2]; [8],~16 min
same,time until completely destroyed,[2]; [8],90 min
same,stability of solutions in 0.1 N HCl,[2]; −20° C.,stable for several weeks
same,stability over time (visual observation),[3],very unstable
same,time after which an oxidation sub-product peak became evident,[4]; 1 mM solution,2 h
same,oxidation product by HPLC,"[4]; 100 mM in water, after 7 weeks",showed a peak at 4.2 min attributed to oxidation sub-products
same,oxidation product by HPLC,"[4]; 100 mM in water, after one day",showed a peak at 4.2 min attributed to oxidation sub-products
same,oxidation product by HPLC,"[4]; 100 mM in water, freshly prepared",did not show any oxidation product
same,reduction in the SPT peak by oxidation,"[4]; 100 mM in water, within a period of 24 h",not pronounced
same,oxidation products by HPLC,[5],vestigial amounts of oxidation products
same,sapropterin degraded,[6],3-7%
same,Impurities (% w/w): Impurity A,[7],0.02 % w/w
same,Impurities (% w/w): Impurity B,[7],11.791 % w/w
same,Impurities (% w/w): Impurity C,[7],5.322 % w/w
same,Impurities (% w/w): Impurity D,[7],0.116 % w/w
same,Impurities (% w/w): Impurity H,[7],0.106 % w/w
same,Impurities (% w/w): Unknown impurity @RRT 0.70,[7],0.191 % w/w
same,Impurities (% w/w): Unknown impurity @RRT 0.85,[7],0.026 % w/w
same,Impurities (% w/w): Unknown impurity @RRT 0.89,[7],0.010 % w/w
same,Impurities (% w/w): Unknown impurity @RRT 0.94,[7],0.108 % w/w
same,Impurities (% w/w): Unknown impurity @RRT 1.11,[7],0.015 % w/w
same,Impurities (% w/w): Unknown impurity @RRT 1.41,[7],0.212 % w/w
same,Impurities (% w/w): Unknown impurity @RRT 1.54,[7],0.022 % w/w
same,Impurities (% w/w): Unknown impurity @RRT 1.63,[7],0.010 % w/w
same,Impurities (% w/w): Unknown impurity @RRT 1.77,[7],0.007 % w/w
same,Impurities (% w/w): Unknown impurity @RRT 2.08,[7],0.004 % w/w
same,Impurities (% w/w): Unknown impurity @RRT 2.15,[7],0.007 % w/w
same,Impurities (% w/w): Unknown impurity @RRT 2.24,[7],0.006 % w/w
same,Impurities (% w/w): Unknown impurity @RRT 2.34,[7],0.095 % w/w
same,major degradation products,[7],Impurities B and C
